Reference: patent publication US5585259A, “Ecotin as a factor Xa, XIa, and XIIa inhibitor” (Corvas International, Inc., priority 1993, dated 1996)

Assays:
[1] = test system: trypsin-like (protease II) esterase; settings: cited from earlier work
thrombin = experiment: Protease assay, chromogenic substrate; assay type: biochemical; settings: 30 minutes preincubation, read-out: Inhibition constant
Experimental: (§1) Protease activity was determined using commercially available chromogenic substrates and purified proteases. The initial rate was determined with a Thermomax (Molecular Devices) microtiterplate reader at 405 nm wavelength at room temperature. The buffer used for all measurements contained 100 mM TRIS, 140 mM NaCl, 0.1% BSA, pH 7.4. […]
To determine inhibition constants, the protease was incubated during 90 minutes (factor Xa), 45 minutes (trypsin), or 30 minutes (thrombin, plasmin, factor VIIa-tissue factor, human plasma kallikrein, porcine pancreatic elastase, factor XIa, factor XIIa, activated protein C, recombinant t-PA and urokinase) in 150 μl before the substrate (50 μl) was added. The inhibition constant was determined from a plot of the relative activity versus the inhibitor concentration fitted with the following equation: […]
except for thrombin where the total enzyme concentration can be neglected compared to the inhibitor concentration and the equation is reduced to:
vi /vo =1/(1+[It ]/Ki *).
vi and vo are the initial rates measured in presence and in absence of inhibitor, [It ] and [Et ] are the total inhibitor and enzyme concentrations and Ki * is the apparent inhibition constant. […]

rat mast cell chymase = settings: cited from earlier work
chymotrypsin = experiment: Protease assay; assay type: biochemical; settings: read-out: Inhibition constant
Experimental: Protease activity was determined using commercially available chromogenic substrates and purified proteases. The initial rate was determined with a Thermomax (Molecular Devices) microtiterplate reader at 405 nm wavelength at room temperature. The buffer used for all measurements contained 100 mM TRIS, 140 mM NaCl, 0.1% BSA, pH 7.4.
(§2) vi /vo ={([Et ]-[It ]-Ki *)+[([It ]+i
(§3) *-[Et ])^2 +4Ki *[Et ]]^ 1/2 }/2[Et ]
(§4) vi and vo are the initial rates measured in presence and in absence of inhibitor, [It ] and [Et ] are the total inhibitor and enzyme concentrations and Ki * is the apparent inhibition constant. It was assumed that under these conditions the apparent inhibition constant is not dependent on the substrate concentration and corresponds to the binding constant of the inhibitor to the active site of the protease in the conditions of the experiment.

kallikrein = settings: cited from earlier work
papain = settings: cited from earlier work
[2] = test system: occlusive thrombus formation in rat carotid artery; experiment: Rat model of FeCl3-induced platelet-dependent arterial thrombosis; assay type: in vivo; settings: 10 μg/kg/min continuous intravenous infusion
Description: The rat model is a well characterized model of platelet dependent, arterial thrombosis which has been used in the evaluation potential antithrombotic compounds such as direct thrombin inhibitors. Kurz et al., 60 Thromb. Res. 269, 1990. […] In this model a platelet-rich, occlusive thrombus is formed in a segment of the rat carotid artery treated with a fresh solution of FeCl3 absorbed to a piece of filter paper. The FeCl3 is thought to diffuse into the treated segment of artery and causes de-endothelialization resulting in thrombus formation. The effect of a test compound on the incidence of occlusive thrombus formation following the application of the FeCl3 is monitored by ultrasonic flowtometry, and is used as the primary end point. The use of flowtometry is a modification of the original procedure in which thermal detection of clot formation was employed. Kurz et al., supra.
Male Harlan Sprague Dawley rats (420-450 g) were acclimated at least 72 hours prior to use and fasted for 12 hours prior to surgery with free access to water. The animals were prepared, anesthetized with Nembutal with catheters for blood pressure monitoring, drug and anesthesia delivery being implanted as described above. The left carotid artery was isolated by making a midline cervical incision followed by blunt dissection and spreading techniques to separate a 2 cm segment of the vessel from the carotid sheath. A silk suture was inserted under the proximal and distal ends of the isolated vessel to provide clearance for the placement of an ultrasonic flow probe (Transonic) around the proximal end of the vessel. […]
Following surgery, the animals were randomized in either a control (saline infusion) or treatment group with test compound (Ecotin) with at least 4 animals per group at the indicated dose. […] Blood pressure, blood flow, heart rate, and respiration were monitored for 60 minutes.
The incidence of occlusion (defined as the attainment of zero blood flow) was recorded as the primary end point. […] The segment was re-weighed following removal of the clot and the difference recorded as total % clot weight. […]

trypsin = settings: cited from earlier work
human pulmonary tryptase = settings: cited from earlier work
[3] = test system: eight soluble endoproteases which are isolated from E. coli (Do, Re, Mi, Fa, So, La, Ci, Pi); settings: cited from earlier work
subtilisin = settings: cited from earlier work
pepsin = settings: cited from earlier work
rt-PA = experiment: Protease assay, chromogenic substrate; assay type: biochemical; settings: 30 minutes preincubation, read-out: Inhibition constant
Experimental: as §1
(§5) To determine inhibition constants, the protease was incubated during 90 minutes (factor Xa), 45 minutes (trypsin), or 30 minutes (thrombin, plasmin, factor VIIa-tissue factor, human plasma kallikrein, porcine pancreatic elastase, factor XIa, factor XIIa, activated protein C, recombinant t-PA and urokinase) in 150 μl before the substrate (50 μl) was added. The inhibition constant was determined from a plot of the relative activity versus the inhibitor concentration fitted with the following equation:
as §2, §3, §4

activated protein C = experiment: Protease assay, chromogenic substrate; assay type: biochemical; settings: 30 minutes preincubation, read-out: Inhibition constant
Experimental: as §1, §5, §2, §3, §4

plasmin = experiment: Protease assay, chromogenic substrate; assay type: biochemical
Experimental: as §1, §5, §2, §3, §4

human plasma kallikrein = experiment: Protease assay, chromogenic substrate; assay type: biochemical; settings: 30 minutes preincubation, read-out: Inhibition constant
Experimental: as §1, §5, §2, §3, §4

urokinase = experiment: Protease assay, chromogenic substrate; assay type: biochemical; settings: 30 minutes preincubation, read-out: Inhibition constant
Experimental: as §1, §5, §2, §3, §4

[4] = test system: factor VIIa-tissue factor complex; experiment: Protease assay, chromogenic substrate; assay type: biochemical; settings: concentrations up to 1 μM
Experimental: as §1, §5, §2, §3, §4

factor XIIA = experiment: Protease assay, chromogenic substrate; assay type: biochemical; settings: 30 minutes preincubation, read-out: Inhibition constant
Experimental: as §1, §5, §2, §3, §4

factor XIa = experiment: Protease assay, chromogenic substrate; assay type: biochemical; settings: 30 minutes preincubation, read-out: Inhibition constant
Experimental: as §1, §5, §2, §3, §4

factor Xa = experiment: Protease assay, chromogenic substrate; assay type: biochemical; settings: 90 minutes preincubation, read-out: Inhibition constant
Experimental: as §1, §5, §2, §3, §4

pancreatic elastase = settings: cited from earlier work
human serosal urokinase = settings: cited from earlier work
[5] = test system: chymotrypsin-like (protease I) esterase; settings: cited from earlier work
[6] = test system: Staphylococcus aureus V8 protease; settings: cited from earlier work
thermolysin = settings: cited from earlier work
elastase = settings: cited from earlier work
[7] = test system: three membrane-associated serine proteases; settings: cited from earlier work

## Ecotin: endogenous E. coli periplasmic serine protease (trypsin) inhibitor protein; recombinant form from pMa5-CI, molecular mass 16,098 Daltons
[1]
  inhibition of trypsin-like (protease II) esterase in E. coli: does not inhibit
thrombin
  Ki: 7200 nM
Rat mast cell chymase
  inhibition of rat mast cell chymase: potent inhibitor
chymotrypsin
  Ki: < 2.5 nM
kallikrein
  inhibition of kallikrein: does not inhibit
papain
  inhibition of papain: does not inhibit
[2]
  Time to Occlusion: 20.1 ± 0.9 min
[2]; 60 minute observation
  Incidence of Occlusion: 2/6
[2]; p<0.01 vs Control
  Clot Formation (%): 12.73 ± 8.04%
trypsin
  inhibition of trypsin: able to inhibit
Human pulmonary tryptase
  inhibition of human pulmonary tryptase: does not inhibit
[3]
  inhibition of the eight soluble E. coli endoproteases: does not inhibit
subtilisin
  inhibition of subtilisin: does not inhibit
pepsin
  inhibition of pepsin: does not inhibit
rt-PA
  Ki: > 2500 nM
Activated protein C
  Ki: > 2500 nM
plasmin; 1 μM recombinant Ecotin
  Plasmin inhibition: 15%
plasmin; plasmin, 30 minutes preincubation
  Inhibition constant: inactive
Human plasma kallikrein
  Ki: 1.4 nM
urokinase
  Ki: > 2500 nM
[4]
  inhibition of factor VIIa-tissue factor complex: not inhibited
Factor XIIA
  Ki: < 2.5 nM
Factor XIa
  Ki: 2.5 to 25 nM
Factor Xa
  Ki: 0.05 to 0.2 nM
Pancreatic elastase
  inhibition of pancreatic elastase: potent inhibitor
Human serosal urokinase
  inhibition of human serosal urokinase: potent inhibitor
[5]
  inhibition of chymotrypsin-like (protease I) esterase in E. coli: does not inhibit
[6]
  inhibition of Staphylococcus aureus V8 protease: does not inhibit
thermolysin
  inhibition of thermolysin: does not inhibit
elastase
  inhibition of elastase: able to inhibit
[7]
  inhibition of three membrane-associated serine proteases: insensitive to inhibition
